Data from patent publication US11466069B2, “Methods of treatment and novel constructs” (AUCKLAND UNISERVICES LIMITED, priority 2017, dated 2022).
Entries after “also recorded” stand apart in the source; their conditions may differ. Non-standard residues stand in square brackets, D forms with d. Residues, ends and D or L forms follow the SMILES beside them. No end group written: not given here.

Key:
[1] = test system: gap junctions; assay: Lucifer Yellow dye scrape/load gap junction assay; assay type: cell-based, human; settings: ARPE-19, scrape/load; XG19 5 μM
Method: Peptides were applied onto cells for uptake as previously mentioned. Peptide solutions were removed from the cells and the cells were exposed to 0.1% […]/PBS dye (LY). A vertical and horizontal scrape was created in the cell monolayer using a pipette tip. The cells were then incubated at room temperature for 15 min. The LY dye solution was removed, cells were washed in PBS and fixed in 4% formaldehyde PBS with nuclei counterstained with DAPI. Coverslips were mounted in anti-fade medium (Citifluor™ AF1) and slides were imaged.

[2] = target: T1, Cx43 hemichannel (Homo sapiens, UniProt P17302); assay: Hemichannel mediated ATP release assay (low calcium solution); assay type: cell-based; design: endogenous in cells; settings: for ATP release compared to low calcium, 30 min: ARPE-19, 5 μM XG19, 100 μM Peptide5, 100 μM CBX, 30 min low calcium
Method: Peptides were applied onto cells for uptake studies as previously described. Peptide solutions were removed from the cells, which were then exposed to either low calcium (Ca^2+) solution or HAIR solution to open hemichannels or high calcium solution to close hemichannels for […] at 37° C., 5% CO2.

[3] = test system: ARPE-19 cells; assay: MTT cytotoxicity assay; assay type: cell-based, human; settings: ARPE-19 cells, 5, 10 or 20 μM for 1 or 24 h
Method: ARPE-19 cells were exposed to DMEM/F12 (normal medium) or HAIR solution for 1 h. XG19 was mixed in DMEM/F12 or HAIR solution and applied to ARPE-19 cells at 0, 5, 10 or 20 μM concentrations for either 1 or 24 h at 37° C., 5% CO2. After the incubation period, the solutions in each well were removed and replaced with 0.5 mg/mL, MTT (Thermo Fisher Scientific) in PBS and incubated for 4 h at 37° C. and 5% CO2. The MTT/PBS solution was then removed and replaced with HCl-isopropanol solution (0.04 M) to dissolve formed formazan. The intensity of purple colour was quantified by measuring absorbance at 570 nm with correction of interference at 650 nm (BioTek Synergy HT).

[4] = target: T1, Cx43 hemichannel; assay: Hemichannel mediated EthD-1 dye uptake assay; assay type: cell-based; design: endogenous in cells; settings: ARPE-19 cells, 5 μM peptide, low calcium solution
Method: Peptides were applied onto cells for uptake as previously mentioned. Peptide solutions were removed from the cells exposed to 2 μM ethidium homodimer-1 (EthD-1) in either Hanks Buffered Salt Solution (137 mM NaCl, 5.4 mM KCl, 0.25 mM Na2HPO4, 0.1 g glucose, 0.44 mM KH2PO4, 1.0 mM MgSO4, 4.2 mM NaHCO3)+EGTA (5 mM) (low calcium solution) to open hemichannels or high calcium (Ca′) solution (Hanks Buffered Salt Solution+1.3 mM CaCl2)) for […] at 37° C., 5% CO2. The solutions were removed, cells were washed in PBS and fixed in 4% formaldehyde PBS before counterstaining nuclei with DAPI. Coverslips were mounted in anti-fade medium (Citifluor™ AF1) and slides were imaged.

[5] = test system: hRMEC cells; assay: Cellular uptake of FITC labelled peptides into hRMEC cells (confocal microscopy); assay type: cell-based, human
Method: Primary human retinal microvascular endothelial cells (hRMEC; Neuromics) were cultured and maintained in T25 flasks in EGM-2™ BulletKit™ media (Lonza) containing endothelial basal media (EBM-2; Lonza) and EGM-2 SingleQuots™ (Lonza), supplemented with 10% fetal bovine serum and 1% Antibiotic-Antimicotic (Sigma) at 37° C. with 5% CO2. VEGF was excluded from the EGM-2 media.
(§1) Peptides or control channel blockers, carbenoxolone (CBX) (Sigma) or lanthanum chloride (LaCl3; Sigma) were mixed with DMEM/F12 or EGM-2™ BulletKit™ media at appropriate concentrations and applied onto cells for 1 h at 37° C., 5% CO2. For cell uptake under hypoxic conditions, peptides were delivered in hypoxic, acidic ion-shifted Ringers (HAIR) solution (13) for 1 h at 37° C., 5% CO2. For cell uptake under hyperglycaemia and inflammation conditions peptides were delivered in hyperglycaemia and inflammation solution for 24 h at 37° C., 5% CO2. The solutions were removed and cells were washed in PBS and fixed in 4% formaldehyde PBS with nuclei were counterstained with DAPI. Coverslips were mounted in anti-fade medium (Citifluor™ AF1) and cells were visualised by confocal microscopy.

[6] = test system: ARPE-19 cells; assay: Cellular uptake of FITC labelled peptides into ARPE-19 cells in normal medium; assay type: cell-based, human; settings: for concentration at which cellular uptake was detected (FITC fluorescence): normal medium, FITC labelled peptide, 1 h, 10-50 μM (Gap19 up to 100 μM)
Method: Cell culture and maintenance Unless otherwise mentioned, all cell culture reagents were purchased from Gibco® or Invitrogen™ (Life Technologies). ARPE-19 cells are from a human retinal pigment epithelium cell line purchased from American Type Culture Collection (ATCC), and were maintained in T25 flasks in DMEM/F12 (DMEM/F-12, GlutaMAX™ medium containing 10% heat inactivated foetal bovine serum (FBS), and 1% Antibiotic-Antimicotic (Sigma)) at 37° C. with 5% CO2.
as §1

[7] = test system: hyperglycaemic and inflamed ARPE-19 cells; assay: Cellular uptake in hyperglycaemic and inflamed ARPE-19 cells; assay type: cell-based, human; settings: ARPE-19, FITC labelled peptide, 24 h
Method: The inflammatory cytokines TNFα and Il-1β (PeproTech) were added to achieve a final concentration of 10 ng/ml each. Antibiotic-Antimycotic was added to the solution to achieve a 1% concentration. The solution was made fresh before application to cells.
as §1

[8] = test system: hypoxic ARPE-19 cells; assay: Cellular uptake in hypoxic ARPE-19 cells (HAIR solution); assay type: cell-based, human; settings: ARPE-19, FITC labelled peptide, HAIR solution 1 h
Method: as §1

[9] = target: T1, Cx43 hemichannel; settings: ethidium bromide uptake, literature (6); cited from earlier work
[10] = test system: gap junction; settings: literature (6); cited from earlier work

T1 sequence (P17302 2-382 limits assumed): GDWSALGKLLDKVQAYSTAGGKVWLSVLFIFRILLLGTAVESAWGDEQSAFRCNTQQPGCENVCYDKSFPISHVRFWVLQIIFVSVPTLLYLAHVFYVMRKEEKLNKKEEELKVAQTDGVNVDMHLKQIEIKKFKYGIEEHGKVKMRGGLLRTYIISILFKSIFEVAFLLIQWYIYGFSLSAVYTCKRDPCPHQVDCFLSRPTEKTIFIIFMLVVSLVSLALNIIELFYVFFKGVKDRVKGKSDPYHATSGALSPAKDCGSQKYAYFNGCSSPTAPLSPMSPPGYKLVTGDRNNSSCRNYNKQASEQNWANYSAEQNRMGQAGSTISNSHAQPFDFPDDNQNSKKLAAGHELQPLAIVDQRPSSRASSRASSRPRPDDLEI

## CC1(C)[C@@H](OC(=O)CCC(=O)O)CC[C@]2(C)[C@H]3C(=O)C=C4[C@@H]5C[C@@](C)(C(=O)O)CC[C@]5(C)CC[C@@]4(C)[C@]3(C)CC[C@@H]12 [CBX, carbenoxolone]
[1]
  gap junction function (Lucifer Yellow dye spread to neighbouring cells): the dye was not further transported to any neighbouring cells; also recorded: inhibited gap junction communication
[2]
  ATP release compared to low calcium, 30 min: reduced ATP release

## CC[C@H](C)[C@H](NC(=O)[C@H](CCC(=O)O)NC(=O)[C@@H](NC(=O)[C@H](CCC(N)=O)NC(=O)[C@H](CCCCN)NC(=O)CNC(=O)CNC(=O)[C@H](NC(=O)[C@H]1CCCN1C(=O)[C@@H](CCCNC(=N)N)NC(=O)[C@@H](CC(C)C)NC(=O)[C@@H](CS)NC(=O)[C@H](N)CC(C)C)C(C)C)[C@@H](C)CC)C(=O)N[C@@H](CCCCN)C(=O)N[C@@H](CCCCN)C(=O)N[C@@H](Cc1ccccc1)C(=O)N[C@@H](CCCCN)C(=O)O [XG19] (H-[dL][dC][dL][dR][dP][dV]GGKQIEIKKFK-OH)
[3]
  cell viability (MTT) compared to untreated cells: no significant difference in cell viability

## FITC-XG19: FITC labelled XG19 used in the cellular uptake experiments ([dL][dC][dL][dR][dP][dV]GGKQIEIKKFK; also: FITC label, site not given here)
[4]
  EthD-1 dye uptake (mean fluorescence intensity) compared to low calcium treatment: significant reduction of the mean fluorescence intensity; also recorded: reduced EthD-1 uptake

## KQIEIKKFK (listed as Homo sapiens) [Gap19]
[5]; 100 μM, still lower than 10 μM XG19
  cellular uptake (FITC fluorescence) at 100 μM: Some uptake was observed
[5]; FITC labelled peptide, 1 h, XG19 10, 20, 50 μM, Gap19 10, 20, 50, 100 μM
  concentration at which cellular uptake was detected (FITC fluorescence): > 50 µM
[6]; ARPE-19 cells
  concentration at which cellular uptake was detected (FITC fluorescence): > 100 µM
[7]
  cellular uptake in hyperglycaemia and inflammation solution vs normal media: undetectable in either condition; also recorded: no change in uptake
[8]
  cellular uptake in hypoxic solution vs normal media: undetectable in either condition; also recorded: no change in uptake
[9]
  concentration at which efficacy improved: 344 to 688 µM
  concentration with no effect on Cx43 hemichannel inhibition: > 172 µM
[10]
  gap junction function post uptake: maintain gap junction function

## VDCFLSRPTEKT [PepS]
[2]; ARPE-19, low calcium solution
  ATP release relative to CBX treated group: greater than CBX
[2]
  ATP release compared to low calcium, 30 min: reduced ATP release

## YGRKKRRQRRRKQIEIKKFK [TAT-Gap19, fusion peptide of TAT peptide and Gap19]
[6]; ARPE-19 cells
  concentration at which cells were saturated with peptide: 20 µM
  concentration at which cellular uptake was detected (FITC fluorescence): ≤ 10 µM
[6]; ARPE-19 cells, 10, 20, 50 μM
  cellular uptake (FITC fluorescence), dependence on concentration: dose dependant manner
  overall cellular uptake compared to XG19: higher cell uptake than XG19
[6]; ARPE-19 cells, 10, 20, 50 μM, listed as TAT-GAP19
  overall cellular uptake compared to XG19: much greater than for XG19 at all the tested concentrations
[6]; ARPE-19 cells, FITC vs DAPI
  subcellular localisation of peptide after uptake: mainly accumulated into the nucleus
